According to patent US5464617A, “β-lactam compounds” (Hoffmann-La Roche Inc., priority 1994, dated 1995):
Converted amounts (≈) assume the structure as drawn. Where a name gives a salt, the structure may show the parent alone.

Legend:
E. coli 1346 = assay: Antibacterial activity of the products per se, serial dilution method in liquid medium (Test E); format: cell-based; settings: test E, product per se
Text: The antibacterial activity of the products per se is illustrated on the basis of Table 3 hereinafter, the minimum inhibitory concentration […] in vitro against E. coli 1346 being determined using the serial dilution method in liquid medium: […]

[1] = system: Citrobacter freundii 1982; assay: MIC in vitro of a 1:4 combination of ceftriaxone with a compound of formula I (Test D); format: cell-based; settings: test D
Protocol: The minimum inhibitory concentration in vitro ([…]) of a 1:4 combination of ceftriaxone with a compound of formula I against Citrobacter freundii 1982 was measured and compiled in Table 2 hereinafter.

[2] = Table 4, 1:4 combination of ceftriaxone with the compound
[3] = Table 5, particularly preferred products
[4] = Table 5, particularly preferred products, 1:4 combination with ceftriaxone

MIC E. coli 1346 (E) (E. coli 1346; Table 4)	MIC C. freundii 1982 (D) [1, 2]	MIC E. coli 1346 (E) (E. coli 1346; [3])	MIC C. freundii 1982 (D) [1, 4]	SMILES
		> 32 µg/mL	≤ 0.06 µg/mL	NC(=O)OCC1=C(C(=O)O)N2C(=O)[C@@H]3[C@H]2[C@H](C1)CN3C(=O)Nc1ccc(O)cc1 [27(a), (1aS,3aR,6bR)-5-Carbamoyloxymethyl-2-(4-hydroxyphenylcarbamoyl)-1-oxo-1a,2,3,3a,4,6b-hexahydro-1H-2,6a-diazacyclobut[cd]indene-6-carboxylic add sodium salt]
		> 32 µg/mL	≤ 0.06 µg/mL	NC(=O)OCC1=C(C(=O)O)N2C(=O)[C@@H]3[C@H]2[C@H](C1)CN3C(=O)Nc1ccc(C(N)=O)cc1 [27(b), (1aS,3aR,6bR)-5-Carbamoyloxymethyl-2-(4-carbamoylphenylcarbamoyl)-1-oxo-1a,2,3,3a,4,6b-hexahydro-1H-2,6a-diazacyclobut[cd]indene-6-carboxylic acid sodium salt]
32 µg/mL	0.25 µg/mL			NC(=O)OCC1=C(C(=O)O)N2C(=O)[C@@H]3[C@H]2[C@H](C1)CN3C(=O)NC1CC1 [27(d), (1aS,3aR,6bR)-5-Carbamoyloxymethyl-2-cyclopropylcarbarmoyl-1-oxo-1a,2,3,3a,4,6b-hexahydro-1H-2,6a-diazacyclobut[cd]indene-6-carboxylic acid sodium salt]
32 µg/mL	0.5 µg/mL			NC(=O)OCC1=C(C(=O)O)N2C(=O)[C@@H]3[C@H]2[C@H](C1)CN3C(=O)NCc1ccc(S(N)(=O)=O)cc1 [27(e), (1aS,3aR,6bR)-5-Carbamoyloxymethyl-2-(4-sulphamoylbenzylcarbamoyl)-1-oxo-1a,2,3,3a,4,6b-hexahydro-1H-2,6a-diazacyclobut[cd]indene-6-carboxylic acid sodium salt]
≤ 0,25 μg/ml	0.25 µg/mL			NC(=O)OCC1=C(C(=O)O)N2C(=O)[C@@H]3[C@H]2[C@H](C1)CN3C(=O)NCc1cccs1 [27(f), (1aS,3aR,6bR)-5-Carbamoyloxymethyl-2-(thiophen-2-ylmethylcarbamoyl)-1-oxo-1a,2,3,3a,4,6b-hexahydro-1H-2,6a-diaza-cyclobut[cd]indene-6-carboxylic acid sodium salt]
> 32 µg/mL	0.5 µg/mL			NC(=O)OCC1=C(C(=O)O)N2C(=O)[C@@H]3[C@H]2[C@H](C1)CN3C(=O)NCCc1cccs1 [27(g), (1aS,3aR,6bR)-5-Carbamoyloxymethyl-1-oxo-2-(2-thiophen-2-yl-ethylcarbamoyl)-1a,2,3,3a,4,6b-hexahydro-1H-2,6a-diazacyclobut[cd]indene-6-carboxylic acid sodium salt]
> 32 µg/mL	0.25 µg/mL			NC(=O)OCC1=C(C(=O)O)N2C(=O)[C@@H]3[C@H]2[C@H](C1)CN3C(=O)NCc1ccc(O)cc1 [27(h), (1aS,3aR,6bR)-5-Carbamoyloxymethyl-2-(4-hydroxybenzylcarbamoyl)-1-oxo-1a,2,3,3a,4,6b-hexahydro-1H-2,6a-diaza-cyclobut[cd]indene-6-carboxylic acid sodium salt]
4 µg/mL (≈ 9.79 µM)	1 µg/mL			C=CCOC(=O)N1C[C@H]2OC(CSc3nnnn3C)=C(C(=O)O)N3C(=O)[C@@H]1[C@@H]23 [29(e) Byproduct]
> 32 µg/mL	32 µg/mL			O=C(Cn1nnnc1SCC1=C(C(=O)O)N2C(=O)[C@H]3NC[C@@H](O1)[C@H]32)NCCc1ccccc1 [29(h), (1aS,3aR,6bS)-1-Oxo-5-(1-(phenylethyl-carbamoylmethyl)-1H-tetrazol-5-ylsulphanylmethyl)-1,1a,2,3,3a,6b-hexahydro-4-oxa-2,6a-diazacydobut[cd]indene-6-carboxylic acid]
8 µg/mL (≈ 18.9 µM)	8 µg/mL			NC(=O)CNC(=O)Cn1nnnc1SCC1=C(C(=O)O)N2C(=O)[C@H]3NC[C@@H](O1)[C@H]32 [29(i), (1aS,3aR,6bS)-5-(1-(Carbamoylmethyl-carbamoylmethyl)-1H-tetrazol-5-ylsulphanylmethyl)-1-oxo-1,1a,2,3,3a,6b-hexahydro-4-oxa-2,6a-diazacyclobut[cd]indene-6-carboxylic acid]
> 32 µg/mL	32 µg/mL			O=C(O)C1=C(CSc2nnnn2CC(=O)N2CCOCC2)O[C@@H]2CN[C@@H]3C(=O)N1[C@@H]32 [29(l), (1aS,3aR,6bS)-5-(1-(2-Morpholin-4-yl-2-oxo-ethyl)-1H-tetrazol-5-ylsulphanylmethyl)-1-oxo-1,1a,2,3,3a,6 b-hexahydro-4-oxa-2,6a-diazacyclobut[cd]indene-6-carboxylic acid]
8 µg/mL	0.2 µg/mL			Cc1nnc(SCC2=C(C(=O)O)N3C(=O)[C@@H]4[C@H]3[C@@H](CN4C(=O)Nc3ccc(C(N)=O)cc3)O2)s1 [31(b), (1aS,3aR,6bS)-2-(4-Carbamoyl-phenylcarbamoyl)-5-(S-methyl-1,3,4-thiadiazol-2-ylsulphanylmethyl)-1-oxo-1,1a,2,3,3a,6b-hexahydro-4-oxa-2,6a-diazacyclobut[cd]indene-6-carboxylic acid sodium salt]
> 32 µg/mL	1 µg/mL			O=C(O)C1=C(CSc2ccncc2)O[C@@H]2CN(C(=O)Nc3ccc(O)cc3)[C@@H]3C(=O)N1[C@@H]32 [31(d), (1aS,3aR,6bS)-2-(4-Hydroxy-phenylcarbamoyl)-1-oxo-5-(pyridin-4-ylsulphanylmethyl)-1,1a,2,3,3a,6b-hexahydro-4-oxa-2,6a-diazacyclobut[cd]indene-6-carboxylicacid sodium salt]
> 32 µg/mL	0.5 µg/mL			NC(=O)c1ccc(NC(=O)N2C[C@H]3OC(CSc4ccncc4)=C(C(=O)O)N4C(=O)[C@@H]2[C@@H]34)cc1 [31(e), (1aS,3aR,6bS)-2-(4-Carbamoyl-phenylcarbamoyl)-1-oxo-5-(pyridin-4-ylsulphanylmethyl)-1,1a,2,3,3a,6 b-hexahydro-4-oxa-2,6a-diazacyclobut[cd]indene-6-carboxylic acid sodium salt]
8 µg/mL	0.5 µg/mL			Cn1nnnc1SCC1=C(C(=O)O)N2C(=O)[C@@H]3[C@H]2[C@@H](CN3C(=O)Nc2ccc(O)cc2)O1 [31(h), (1aS,3aR,6bS)-2-(4-hydroxy-phenylcarbamoyl)-5-(1-methyl-1H-tetrazol-5-ylsulphanylmethyl)-1-oxo-1,1a,2,3,3a,6b-hexahydro-4-oxa-2,6a-diazacyclobut[cd]indene-6-carboxylic acid sodium salt]
8 µg/mL	0.5 µg/mL			Cn1nnnc1SCC1=C(C(=O)O)N2C(=O)[C@@H]3[C@H]2[C@@H](CN3C(=O)Nc2ccc(C(N)=O)cc2)O1 [31(i), (1aS,3aR,6bS)-2-(4-Carbamoyl-phenylcarbamoyl)-5-(1-methyl-1H-tetrazol-5-ylsulphanylmethyl)-1-oxo-1,1a,2,3,3a,6b-hexahydro-4-oxa-2,6a-diazacyclobut[cd]indene-6-carboxylic acid sodium salt]
> 32 µg/mL	16 µg/mL			CC(=O)N1C[C@H]2OC(CSc3ccncc3)=C(C(=O)O)N3C(=O)[C@@H]1[C@@H]23 [32(a), (1aS,3aR,6bS)-2-Acetyl-5-(pyridin-4-ylsulphanylmethyl)-1-oxo-1,1a,2,3,3a,6b-hexahydro-4-oxa-2,6a-diazacyclobut[cd]indene-6-carboxylic acid sodium salt]
4 µg/mL	32 µg/mL			CC(=O)N1C[C@H]2OC(CSc3cc(C)nc4nc(C(N)=O)nn34)=C(C(=O)O)N3C(=O)[C@@H]1[C@@H]23 [32(c), (1aS,3aR,6bS)-2-Acetyl-5-(2-carbamoyl-S-methyl[1,2,4]-triazolo[1,5-a]pyrimidin-7-ylsulphanylmethyl)-1-oxo-1,1a,2,3,3a,6b-hexahydro-4-oxa-2,6a-diazacyclobut[cd]indene-6-carboxylic acid sodium salt]
16 µg/mL	16 µg/mL			CC(=O)N1C[C@H]2OC(CSc3nnnn3CC(=O)NC3CC3)=C(C(=O)O)N3C(=O)[C@@H]1[C@@H]23 [32(d), (1a-S,3aR,6bS)-2-Acetyl-5-(1-cyclopropylcarbamoylmethyl-1H-tetrazol-5-ylsulphanylmethyl)-1-oxo-1,1a,2,3,3a,6b-hexahydro-4-oxa-2,6a-diazacyclobut[cd]indene-6-carboxylic acid sodium salt]
4 µg/mL	2 µg/mL			CC(=O)N1C[C@H]2OC(CSc3nnnn3CC(N)=O)=C(C(=O)O)N3C(=O)[C@@H]1[C@@H]23 [32(e), (1aS,3aR,6bS)-2-Acetyl-5-(1-carbamoylmethyl-1H-tetrazol-5-ylsulphanylmethyl)-1-oxo-1,1a,2,3,3a,6b-hexahydro-4-oxa-2,6a-diazacyclobut[cd]indene-6-carboxylic acid sodium salt]
4 µg/mL	8 µg/mL			CNC(=O)Cn1nnnc1SCC1=C(C(=O)O)N2C(=O)[C@@H]3[C@H]2[C@@H](CN3C(C)=O)O1 [32(f), (1aS,3aR, 6bS)-2-Acetyl-5-(1-methyl-carbamoylmethyl-1H-tetrazol-5-ylsulphanylmethyl)-1-oxo-1,1a,2,3,3a,6b-hexahydro-4-oxa-2,6a-diazacyclobut[cd]indene-6-carboxylic acid sodium salt]

SMILES	MIC E. coli 1346 (E) (E. coli 1346; Table 4)	MIC C. freundii 1982 (D) [1, 2]	MIC E. coli 1346 (E) (E. coli 1346; [3])	MIC C. freundii 1982 (D) [1, 4]
CC(=O)OCC1=C(C(=O)O)N2C(=O)[C@@H]3[C@H]2[C@H](C1)CN3C(=O)C(F)(F)F [25(d), (1aS,3aR,6bR)-5-Acetoxymethyl-2-trifluoroacetyl-1-oxo-1a,2,3,3a,4,6b-hexahydro-1H-2,6a-diazacyclobut[cd]indene-6-carboxylic acid sodium salt]	4 µg/mL	0.5 µg/mL		
